Patent US9326513B2, “Fungicidal compositions” (Syngenta Participations AG, priority 2011, dated 2016)

Experiments:
Type in all cases: in vivo
Conditions in all cases: foliar, compared to untreated control leaf disks, read-out: disease control
[1] = system: Blumeria graminis f. sp. tritici (Erysiphe graminis f. sp. tritici); assay: Blumeria graminis f. sp. tritici / wheat / leaf disc preventative (powdery mildew on wheat)
Experimental: Blumeria graminis f. sp. tritici (Erysiphe graminis f. sp. tritici)/Wheat/Leaf Disc Preventative (Powdery Mildew on Wheat)
Wheat leaf segments cv. Kanzler were placed on agar in a multiwell plate (24-well format) and sprayed with the formulated test compound diluted in water. The leaf disks were inoculated by shaking powdery mildew infected plants above the test plates 1 day after application. The inoculated leaf disks were incubated at 20° C. and 60% rh under a light regime of 24 h darkness followed by 12 h light/12 h darkness in a climate chamber and the activity of a compound was assessed as percent disease control compared to untreated when an appropriate level of disease damage appears on untreated check leaf segments (6-8 days after application).
The following compounds gave at 200 ppm give at least 50% disease control in this test when compared to untreated control leaf disks under the same conditions, which show extensive disease development: […]

[2] = system: Puccinia recondita f. sp. tritici; assay: Puccinia recondita f. sp. tritici / wheat / leaf disc preventative (brown rust)
Description: Puccinia recondita f. sp. tritici/Wheat/Leaf Disc Preventative (Brown Rust) Wheat leaf segments cv. Kanzler were placed on agar in multiwell plates (24-well format) and sprayed with the formulated test compound diluted in water. The leaf disks were inoculated with a spore suspension of the fungus 1 day after application.

[3] = system: Puccinia recondita f. sp. tritici; assay: Puccinia recondita f. sp. tritici / wheat / leaf disc curative (brown rust)
Experimental: Puccinia recondita f. sp. tritici/Wheat/Leaf Disc Curative (Brown Rust) Wheat leaf segments cv. Kanzler are placed on agar in multiwell plates (24-well format). The leaf segments are inoculated with a spore suspension of the fungus. Plates were stored in darkness at 19° C. and 75% rh. The formulated test compound diluted in water was applied 1 day after inoculation.

Measured: pest or weed control at 200 ppm

CCN(C)/C=N/c1cc(Br)c(OCc2ccc3cccnc3c2)nc1C [Q.351]
≥ 50%: all assays above

C/C=C/CCCCOc1nc(C)c(/N=C/N(C)CC)cc1Br [Q.132]
≥ 50%: all assays above

CCN(C)/C=N/c1cc(Br)c(OC2CCC(=O)CC2)nc1C [Q.031]
≥ 50%: all assays above

CCN(C)/C=N/c1cc(Br)c(OCc2ccccc2C)nc1Br [Q.397]
≥ 50%: all assays above

CCN(C)/C=N/c1cc(Br)c(OC2CCCC(C)C2)nc1C (stereo not drawn) [Q.149]
≥ 50%: all assays above

CC#Cc1cc(/N=C/N(C)CC)c(C)nc1OC(C)c1cc(F)cc(F)c1 (stereo not drawn) [Q.230]
≥ 50%: all assays above

CCN(C)/C=N/c1ccc(OCc2ccccc2OC)nc1C [Q.367]
≥ 50%: all assays above

CCN(C)/C=N/c1cc(Br)c(OCC2CC(C)=C(C)C2)nc1C [Q.134]
≥ 50%: all assays above

CCN(C)/C=N/c1cc(Br)c(OC2CCCCC2C)nc1C (stereo not drawn) [Q.084]
≥ 50%: all assays above

CCN(C)/C=N/c1cc(Br)c(OCC2CC=CC2)nc1C [Q.098]
≥ 50%: all assays above

CCN(C)/C=N/c1cc(-c2ccsc2)c(OC(C)c2cc(F)cc(F)c2)nc1C (stereo not drawn) [Q.265]
≥ 50%: all assays above

CCN(C)/C=N/c1cc(Br)c(OC(C)c2ccc3c(c2)CCC3)nc1C (stereo not drawn) [Q.239]
≥ 50%: all assays above

CCN(C)/C=N/c1cc(Br)c(OCC[Si](C)(C)C)nc1C [Q.271]
≥ 50%: all assays above

Cc1nc(OCCCC(C)C)c(Br)cc1/N=C/N(C)C [Q.006]
≥ 50%: all assays above

CCN(C)/C=N/c1cc(Br)c(OCc2ccccc2CCc2ccccc2)nc1C [Q.309]
≥ 50%: all assays above

CCN(C)/C=N/c1cc(Br)c(OCCCC=C(C)C)nc1C [Q.118]
≥ 50%: all assays above

CCN(C)/C=N/c1cc(Br)c(OCc2ccccc2OC)nc1C [Q.330]
≥ 50%: all assays above

CCCN/C=N/c1cc(Br)c(OCCCC(C)C)nc1C [Q.010]
≥ 50%: all assays above

CCN(C)/C=N/c1cc(Br)c(OC2C=CCCC2)nc1C (stereo not drawn) [Q.172]
≥ 50%: all assays above

CCN(C)/C=N/c1cc(Br)c(OC2CCCC3CCCCC32)nc1C (stereo not drawn) [Q.049]
≥ 50%: all assays above

CCN(C)/C=N/c1cc(Br)c(OC2CCC(=O)CC2C)nc1C (single isomer, unassigned) [Q.332]
≥ 50%: all assays above

CCN(C)/C=N/c1cc(Br)c(OC(C)c2ccccc2Br)nc1C (stereo not drawn) [Q.303]
≥ 50%: all assays above

CCN(C)/C=N/c1cc(Br)c(OC(C)c2ccccc2C)nc1C (stereo not drawn) [Q.321]
≥ 50%: all assays above

CCCc1ccccc1COc1nc(C)c(/N=C/N(C)CC)cc1Br [Q.345]
≥ 50%: all assays above

CCN(C)/C=N/c1cc(Br)c(OCc2cc(C(F)(F)F)cc(C(F)(F)F)c2)nc1C [Q.152]
≥ 50%: all assays above

C=CCC(C)Oc1nc(C)c(/N=C/N(C)CC)cc1Br (stereo not drawn) [Q.145]
≥ 50%: all assays above

CCCCCCCCCCOc1nc(C)c(/N=C/N(C)CC)cc1C [Q.058]
≥ 50%: all assays above

CCN(C)/C=N/c1ccc(OC(C)c2cc(OC)cc(OC)c2)nc1C (stereo not drawn) [Q.373]
≥ 50%: all assays above

CCN(C)/C=N/c1cc(Br)c(OC(C)c2ccc(C)cc2)nc1C (stereo not drawn) [Q.112]
≥ 50%: all assays above

CCN(C)/C=N/c1cc(Br)c(OC(C)c2cc(Cl)cc(Cl)c2)nc1C (stereo not drawn) [Q.205]
≥ 50%: all assays above

CCN(C)/C=N/c1cc(Br)c(OCCCC(O)COC)nc1C (stereo not drawn) [Q.036]
≥ 50%: all assays above

CCN(C)/C=N/c1cc(Br)c(OCc2ccccc2C)nc1C1CC1 [Q.401]
≥ 50%: all assays above

Cc1nc(OC(C)c2cc(F)cc(F)c2)c(Br)cc1/N=C/N(C)C(C)C (stereo not drawn) [Q.188]
≥ 50%: all assays above

CCN(C)/C=N/c1cc(Br)c(OCc2ccccc2-c2ccccc2)nc1C [Q.294]
≥ 50%: all assays above

CCN(C)/C=N/c1cc(Br)c(OC2CCC(C(C)(C)C)CC2)nc1C (stereo not drawn) [Q.081]
≥ 50%: all assays above

CCN(C)/C=N/c1cc(Br)c(OCc2snc(C(C)C)c2C#N)nc1C [Q.156]
≥ 50%: all assays above

CCN(C)/C=N/c1ccc(OC(C)c2cc(F)cc(F)c2)nc1C (stereo not drawn) [Q.181]
≥ 50%: all assays above

CCN(C)/C=N/c1cc(Br)c(OCCCC(CCl)OC=O)nc1C (stereo not drawn) [Q.060]
≥ 50%: all assays above

CCOc1nc(C)c(/N=C/N(C)CC)cc1Br [Q.085]
≥ 50%: all assays above

C#CCOc1nc(C)c(/N=C/N(C)CC)cc1Br [Q.078]
≥ 50%: all assays above

CCN(C)/C=N/c1cc(Br)c(OCCCCc2ccc(Cl)cc2)nc1C [Q.045]
≥ 50%: all assays above

CCN(C)/C=N/c1cc(Br)c(OCc2ccc(C)nc2)nc1C [Q.130]
≥ 50%: all assays above

CCN(C)/C=N/c1cc(Br)c(O[C@H]2CC[C@H](c3ccccc3)CC2)nc1C [Q.270]
≥ 50%: all assays above

CCC(Oc1ccc(/N=C/N(C)CC)c(C)n1)c1cc(C)cc(C)c1 (stereo not drawn) [Q.359]
≥ 50%: all assays above

CCN(C)/C=N/c1cc(Br)c(OC2C=CC(=O)CC2)nc1C (stereo not drawn) [Q.281]
≥ 50%: all assays above

CCN(C)/C=N/c1cc(Br)c(OCC[Si](CC)(CC)CC)nc1C [Q.274]
≥ 50%: all assays above

C=CCC(CC=C)Oc1nc(C)c(/N=C/N(C)CC)cc1Br [Q.140]
≥ 50%: all assays above

CCN(C)/C=N/c1cc(Br)c(OCC(F)F)nc1C [Q.383]
≥ 50%: all assays above

CCN(C)/C=N/c1cc(Br)c(OC(C)c2cc(F)c(F)c(F)c2)nc1C (stereo not drawn) [Q.318]
≥ 50%: all assays above

CCN(C)/C=N/c1cc(Br)c(OC2Cc3cc(C#N)c(OC)cc3C2)nc1C (stereo not drawn) [Q.369]
≥ 50%: all assays above
